Structures can show the parent of a compound that is named as a salt.
Experiments:
human NK1 receptor [1] = target: T1, human NK1 receptor (Homo sapiens, UniProt P25103); test: [3H]substance P binding at human NK1 receptors in CHO cells; conditions: [3H]substance P 0.6 nM, 60 min room temperature, read-out: affinity (pKi) for the human NK1 receptor (converted)
Method: All assays were performed in triplicate in at least2 separate experiments.

NK2 receptors = target: T2, NK2 receptors (Homo sapiens, UniProt P21452); test: Selectivity for NK1 compared to NK2 receptors; format: binding
T2 sequence (P21452 1-398): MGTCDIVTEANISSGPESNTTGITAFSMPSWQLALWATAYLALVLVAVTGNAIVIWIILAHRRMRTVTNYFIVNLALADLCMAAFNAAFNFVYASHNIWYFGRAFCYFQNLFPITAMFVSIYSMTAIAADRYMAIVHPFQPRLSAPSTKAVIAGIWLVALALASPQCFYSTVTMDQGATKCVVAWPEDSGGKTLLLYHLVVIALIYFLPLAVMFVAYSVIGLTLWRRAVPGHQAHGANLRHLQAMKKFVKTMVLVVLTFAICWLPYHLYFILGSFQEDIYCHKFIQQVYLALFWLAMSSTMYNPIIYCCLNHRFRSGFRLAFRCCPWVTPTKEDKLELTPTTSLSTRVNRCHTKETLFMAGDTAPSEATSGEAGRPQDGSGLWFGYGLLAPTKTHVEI

NK3 receptors = target: T3, NK3 receptors (Homo sapiens, UniProt P29371); test: Selectivity for NK1 compared to NK3 receptors; format: binding
T3 sequence (P29371 1-465): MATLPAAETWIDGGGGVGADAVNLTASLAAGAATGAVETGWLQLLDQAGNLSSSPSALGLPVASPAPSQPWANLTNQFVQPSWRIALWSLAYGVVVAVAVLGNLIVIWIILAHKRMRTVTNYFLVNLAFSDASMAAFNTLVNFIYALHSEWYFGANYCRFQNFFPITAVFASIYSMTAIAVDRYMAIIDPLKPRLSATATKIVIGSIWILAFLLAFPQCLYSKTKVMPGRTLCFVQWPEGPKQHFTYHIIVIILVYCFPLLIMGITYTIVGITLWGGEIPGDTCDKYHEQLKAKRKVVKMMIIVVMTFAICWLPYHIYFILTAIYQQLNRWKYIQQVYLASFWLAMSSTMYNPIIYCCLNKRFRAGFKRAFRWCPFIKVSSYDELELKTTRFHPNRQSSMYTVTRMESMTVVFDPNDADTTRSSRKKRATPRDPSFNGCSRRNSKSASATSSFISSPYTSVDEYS

[2] = tested on: over 50 other binding sites; test: Selectivity for NK1 compared to over 50 other binding sites
[3] = tested on: foot-tapping behaviour induced in gerbils with an NK1 receptor agonist; test: Foot-tapping behaviour induced by i.c.v. NK1 receptor agonist; format: in vivo, gerbil; conditions: for dose calculated to inhibit 50% of the foot-tapping behaviour: oral administration
Method: (§1) In vivo the compound of formula Ia antagonises foot-tapping behaviour induced in gerbils with intracerebroventricular (i.c.v.) injections of an NK1 receptor agonist. The dose for this compound calculated to inhibit 50% of the foot-tapping behaviour following oral administration was 0.2 mg/kg.
as §1, with “2-(3,5-bis-trifluoromethyl-phenyl)-N-methyl-N-[6-(4-methyl-piperazin-1-yl)-4-o-tolyl-pyridin-3-yl]-isobutyramide” for “the compound of formula Ia”, “Gerbils” for “gerbils”, “of” for “for”, “0.5” for “0.2”
In vivo the compound of formula Ic antagonises foot-tapping behaviour induced in Gerbils with intracerebroventricular (i.c.v.) injections of an NK1 receptor agonist. The dose of this compound calculated to inhibit 50% of the foot-tapping behaviour following oral administration was 1.5 mg/kg.

[4] = tested on: emesis induced in ferrets by emetogens; test: Antiemetic test in ferrets; format: in vivo, ferret; conditions: for emesis induced by all emetogens (apomorphine, morphine, ipecacuanha, cisplatin, CuSO4): 0.3 mg/kg p.o., 2 hours before the emetogen
Method: The compound of formula 1a, 2-(3,5-Bis-trifluoromethyl-phenyl)-N-methyl-N-(6-morpholin-4-yl-4-o-tolyl-pyridin-3-yl)-isobutyramide, was also tested as an antiemetic agent in ferrets.
2-(3,5-bis-trifluoromethyl-phenyl)-N-methyl-N-[6-(4-methyl-piperazin-1-yl)-4-o-tolyl-pyridin-3-yl]-isobutyramide was also tested as an antiemetic agent in Ferrets.

[5] = Pharmacokinetic parameters in rats; conditions: rat, in vivo; for bioavailability: po; for half-life: read-out: terminal half-life (converted); for Vd: read-out: volume of distribution
in vivo = conditions: dog; for bioavailability: po
Excerpt: The pharmacokinetic parameters have been evaluated in both rats and dogs.

human NK1 receptor [6] = target: T1, human NK1 receptor; test: Substance P induced Ca2+ influx in CHO cells (FLIPR); format: cell-based; set-up: expressed in transfected cells; host or cells: CHO cells; conditions: for effect on substance P induced Ca2+ influxes: CHO cells expressing recombinant human NK1 receptor, FLIPR; for type of antagonism at human recombinant NK1 receptors: from Ca2+ influx data
Excerpt: (§2) The activity in vitro of the compound of formula 1a was examined by studying its effect on substance P induced Ca^2+ influxes in CHO cells expressing the recombinant human NK1 receptor. In these cells, substance P causes a concentration dependent influx of Ca^2+ which can be measured using FLIPR technology.
The activity of 2-(3,5-bis-trifluoromethyl-phenyl)-N-methyl-N-[^6-(^4-methyl-piperazin-1-yl)-4-o-tolyl-pyridin-3-yl]-isobutyramide in vitro was examined by studying its effect on substance P induced Ca^2+influxes in CHO cells expressing the recombinant human NK1 receptor. In these cells, substance P causes a concentration dependent influx of Ca^2+ which can be measured using FLIPR technology.
as §2, with “activity” for “activity in vitro”, “Ic in vitro” for “1a”

[7] = tested on: motion sickness in the suncus murinus; test: Model of motion sickness in suncus murinus; format: in vivo; conditions: po

T1 sequence (P25103 whole entry): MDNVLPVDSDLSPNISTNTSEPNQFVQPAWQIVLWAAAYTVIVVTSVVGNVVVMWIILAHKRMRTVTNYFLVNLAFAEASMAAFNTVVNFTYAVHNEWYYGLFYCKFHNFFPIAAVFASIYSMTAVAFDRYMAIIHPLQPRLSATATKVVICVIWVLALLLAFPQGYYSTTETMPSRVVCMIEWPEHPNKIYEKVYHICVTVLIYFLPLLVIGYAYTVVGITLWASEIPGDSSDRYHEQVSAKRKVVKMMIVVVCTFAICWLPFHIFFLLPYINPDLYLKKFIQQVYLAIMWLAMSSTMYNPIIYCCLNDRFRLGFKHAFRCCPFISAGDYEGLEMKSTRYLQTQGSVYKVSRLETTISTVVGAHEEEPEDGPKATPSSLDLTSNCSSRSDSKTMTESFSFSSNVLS

Cc1ccccc1-c1cc(N(C)C)ncc1N(C)C(=O)C(C)(C)c1cc(C(F)(F)F)cc(C(F)(F)F)c1 (as salt: hydrochloride) [Example 29, 2-(3,5-Bis-trifluoromethyl-phenyl)-N-(6-dimethylamino-4-o-tolyl-pyridin-3-yl)-N-methyl-isobutyramide]
melting point: 174 to 175 °C

Cc1ccccc1-c1cc(N2CCOCC2)ncc1N(C)C(=O)C(C)(C)c1cc(C(F)(F)F)cc(C(F)(F)F)c1 (as salt: hydrochloride) [Ia, 2-(3,5-bis-trifluoromethyl-phenyl)-N-methyl-N-(6-morpholin-4-yl-4-o-tolyl-pyridin-3-yl)-isobutyramide]
melting point: 73.5 to 76 °C

CN(C(=O)C(C)(C)c1cc(C(F)(F)F)cc(C(F)(F)F)c1)c1cnccc1-c1ccccc1Cl (as salt: hydrochloride) [Ic, 2-(3,5-Bis-trifluoromethyl-phenyl)-N-[4-(2-chloro-phenyl)-pyridin-3-yl]-N-methyl-isobutyramide]
melting point: 186 to 188 °C

Cc1ccccc1-c1ccncc1N(C)C(=O)C(C)(C)c1cc(C(F)(F)F)cc(C(F)(F)F)c1 [Example 18, 2-(3,5-Bis-trifluoromethyl-phenyl)-N-methyl-N-(4-o-tolyl-pyridin-3-yl)-isobutyramide Hydrochloride (1:1)]
Ki (human NK1 receptor [1]): 3.39 nM

Cc1ccccc1-c1cc(N(C)CCN2CCOCC2)ncc1N(C)C(=O)C(C)(C)c1cc(C(F)(F)F)cc(C(F)(F)F)c1 [Example 25, 2-(3,5-Bis-trifluoromethyl-phenyl)-N-methyl-N-{6-[methyl-(2-morpholin-4-yl-ethyl)-amino]-4-o-tolyl-pyridin-3-yl}-isobutyramide]
Ki (human NK1 receptor [1]): 2 nM

Cc1ccccc1-c1cc(N2CCNCC2)ncc1N(C)C(=O)C(C)(C)c1cc(C(F)(F)F)cc(C(F)(F)F)c1 [Example 31, 2-(3,5-Bis-trifluoromethyl-phenyl)-N-methyl-N-(6-piperazin-1-yl-4-o-tolyl-pyridin-3-yl)-isobutyramide]
Ki (human NK1 receptor [1]): 1 nM

Cc1ccccc1-c1cc(N2CCN(Cc3n[nH]c(=O)[nH]3)CC2)ncc1C(=O)N(C)Cc1cc(C(F)(F)F)cc(C(F)(F)F)c1 [Example 58, N-(3,5-Bis-trifluoromethyl-benzyl)-N-methyl-6-[4-(5-oxo-4,5-dihydro-1H-[1,2,4]triazol-3-ylmethyl)-piperazin-1-yl]-4-o-tolyl-nicotinamide]
Ki (human NK1 receptor [1]): 0.288 nM

CC(C)c1cc(Cl)ncc1C(=O)NC(C)(C)C [Example 83, N-tert-Butyl-6-chloro-4-(prop-2-yl)-nicotinamide]
melting point: 130 to 140 °C (dec.)

CC(C)(C)NC(=O)c1cnc(Cl)cc1-c1ccc(F)cc1 [Example 84, N-tert.-Butyl-6-chloro-4-p-fluoro-phenyl-nicotinamide]
melting point: 168 to 173 °C

Cc1ccccc1-c1cc(N2CCOCC2)ncc1N(C)C(=O)C(C)(C)c1cc(C(F)(F)F)cc(C(F)(F)F)c1 [Ia, 2-(3,5-bis-trifluoromethyl-phenyl)-N-methyl-N-(6-morpholin-4-yl-4-o-tolyl-pyridin-3-yl)-isobutyramide]
Ki (human NK1 receptor [1]): 1 nM
selectivity for the NK1 receptor compared to NK2 receptors (NK2 receptors): over 2 orders of magnitude
selectivity for the NK1 receptor compared to NK3 receptors (NK3 receptors): over 2 orders of magnitude
selectivity for the NK1 receptor compared to over 50 other binding sites [2]: over 2 orders of magnitude
dose calculated to inhibit 50% of the foot-tapping behaviour [3]: 0.2 mg/kg
emesis induced by all emetogens (apomorphine, morphine, ipecacuanha, cisplatin, CuSO4) [4]: completely blocked
clearance [5]: 4 mL/min/kg
bioavailability [5]: 50%
half-life [5]: 23 h
Vd [5]: 8 L/kg
Vd (in vivo): 22 L/kg
clearance (in vivo): 16 mL/min/kg
half-life (in vivo): 40 h
bioavailability (in vivo): 30 to 40%
effect on substance P induced Ca2+ influxes (human NK1 receptor [6]): rightward shift in the concentration effect curve of substance P
type of antagonism at human recombinant NK1 receptors (human NK1 receptor [6]): competitive antagonist
slope of the Schild regression (human NK1 receptor [6]; substance P induced Ca2+ influx, CHO cells): 1.1

Cc1ccccc1-c1cc(N2CCN(C)CC2)ncc1N(C)C(=O)C(C)(C)c1cc(C(F)(F)F)cc(C(F)(F)F)c1 [Ib, 2-(3,5-bis-trifluoromethyl-phenyl)-N-methyl-N-[6-(4-methyl-piperazin-1-yl)-4-o-tolyl-pyridin-3-yl]-isobutyramide]
Ki (human NK1 receptor [1]): 1 nM
selectivity for the NK1 receptor compared to NK2 receptors (NK2 receptors): over 2 orders of magnitude
selectivity for the NK1 receptor compared to NK3 receptors (NK3 receptors): over 2 orders of magnitude
selectivity for the NK1 receptor compared to over 50 other binding sites [2]: over 2 orders of magnitude
total plasma concentration required to completely block the foot-tapping behaviour [3]: 30 ng/mL
dose calculated to inhibit 50% of the foot-tapping behaviour [3]: 0.5 mg/kg
emesis induced by all emetogens (apomorphine, morphine, ipecacuanha, cisplatin, CuSO4) [4]: completely blocked
ED50 ([4]; Mustela putorius, po, read-out: ED50 against apomorphine-induced emesis): 0.1 mg/kg
ED50 [7]: 0.2 mg/kg
clearance [5]: 3.7 mL/min/kg
bioavailability [5]: 45%
half-life [5]: 24 h
Vd [5]: 5.7 L/kg
Vd (in vivo): 15 L/kg
clearance (in vivo): 9.2 mL/min/kg
half-life (in vivo): 18 h
bioavailability (in vivo): 75%
effect on substance P induced Ca2+ influxes (human NK1 receptor [6]): inhibited this effect in a concentration dependent manner
type of antagonism at human recombinant NK1 receptors (human NK1 receptor [6]): competitive antagonist

CN(C(=O)C(C)(C)c1cc(C(F)(F)F)cc(C(F)(F)F)c1)c1cnccc1-c1ccccc1Cl [Ic, 2-(3,5-Bis-trifluoromethyl-phenyl)-N-[4-(2-chloro-phenyl)-pyridin-3-yl]-N-methyl-isobutyramide]
Ki (human NK1 receptor [1]): 2.51 nM
selectivity for the NK1 receptor compared to NK2 receptors (NK2 receptors): over 2 orders of magnitude
selectivity for the NK1 receptor compared to NK3 receptors (NK3 receptors): over 2 orders of magnitude
selectivity for the NK1 receptor compared to over 50 other binding sites [2]: over 2 orders of magnitude
total plasma concentration required to completely block the foot-tapping behaviour [3]: 100 ng/mL
dose calculated to inhibit 50% of the foot-tapping behaviour [3]: 1.5 mg/kg
clearance [5]: 45 mL/min/kg
bioavailability [5]: ~30%
half-life [5]: 11 h
Vd [5]: 2.6 L/kg
Vd (in vivo): 4.5 L/kg
clearance (in vivo): 30 mL/min/kg
half-life (in vivo): 3.5 h
bioavailability (in vivo): 16%
effect on substance P induced Ca2+ influxes (human NK1 receptor [6]): inhibited this effect in a concentration dependent manner
type of antagonism at human recombinant NK1 receptors (human NK1 receptor [6]): competitive antagonist

Source: patent US20020091265A1, “4-phenyl-pyridine derivatives” (priority 1999, published 2002)
